Where “and” joins values, the source holds several entries; their conditions need not be identical. Equal values may be shown once.
System: Caco-2 cells
Test: Multiplex xMAP cytokine levels, Caco-2 epithelial barrier alone stimulated with LL-37
Format: cell-based, human
Conditions: Caco-2 alone, 1 µM LL-37, 24 h, n=2
Procedure: Caco-2 cell line (ATCC HTB-37) was cultured in a humidified CO2-incubator (5% CO2, 37 °C) in the complete DMEM/F12 (1:1) medium (Gibco, Waltham, MA, USA) containing 10% fetal bovine serum (FBS, Gibco) and 1X antibiotic–antimycotic solution (Gibco). To stabilize the cell phenotype, Caco-2 cells have been subcultivated three times before seeding on the filter supports. Then, Caco-2 cells were seeded at a density of 2 × 10^5 cells/cm^2 onto 24-well Millicell cell culture inserts (PC, 0.4-μm pore size, 0.6 cm^2 surface area, cat. #PIHP01250) (Millipore, Burlington, MA, USA), precoated with 0.2% bovine gelatin (Sigma-Aldrich, Saint Louis, MO, USA). After seeding, Caco-2 cells were grown in the same complete medium with re-feeding every 2–3 days until polarization of the monolayer occurred. The functional polarity of the monolayers was developed when transepithelial electrical resistance (TEER) between the apical and basolateral surfaces of the monolayers reached […] as measured by the electrical resistance system Millicell-ERS Voltohmmeter (Millipore, Burlington, MA, USA). Grown cell monolayers were used in transport and cytokine production experiments between the 21st and 29th days.
Primary blood monocytes, moDCs, and NKT cells were seeded in 600 µL of complete RPMI-1640 with 10% Human AB serum (Capricorn Scientific, Ebsdorfergrund, Germany) and supplemented with 1X antibiotic–antimycotic solution into the wells of 24-well plates at a density of 3–7 × 10^5 cells/well 24 h before the experiment. Then, 24 h later, the medium in each well was replaced by the same medium with 1 µM of LL-37 for the sample wells or fresh medium alone for the control wells, and the permeable inserts with the Caco-2 monolayer with TEER > 400 Ω × cm^2, containing 400 μL of the complete medium in their apical chamber, were immediately placed into the appropriate wells. Also, inserts with the Caco-2 monolayer were placed in cell-free wells of 24-well plates in the same complete RPMI-1640 medium with or without 1 µM of LL-37 as controls. Cells were kept in a CO2-incubator (5% CO2, 37 °C) for another 24 h. Then, culture medium from each well was collected, centrifuged, and frozen at −70 °C.
To quantitatively evaluate a broad spectrum of analytes secreted by human cell cultures at the protein level, multiplex xMAP technology was used. The chosen panel (cat. #HCYTA-60K-PX48, Merck, Darmstadt, Germany) included 48 different magnetic beads with primary antibodies to the following cytokines, chemokines, and growth factors: CCL11 (Eotaxin-1), Flt-3 ligand, CX3CL1 (Fractalkine), sCD40L, FGF-2, EGF, GROα, GM-CSF, G-CSF, IL-1RA, IL-1α, IL-1β, IL-2, IL-3, IL-4, IL-5, IL-6, IL-7, CXCL8 (IL-8), IL-9, IL-10, IL-12p40, IL-12p70, IL-13, IL-15, IL-17A (CTLA8), IL-17E (IL-25), IL-17F, IL-18, IL-22, IL-27, IFNγ, IFNα2, CXCL10 (IP-10), CCL2 (MCP-1), CCL7 (MCP-3), CCL22 (MDC), CXCL9 (MIG), CCL3 (MIP-1α), CCL4 (MIP-1β), CCL5 (RANTES), M-CSF, PDGF-AA, PDGF-AB/BB, TNFα, TNFβ, TGFα, and VEGF-A. The assay was performed in accordance with the manufacturer’s instructions with overnight incubation of the samples with primary antibodies, and the plate was read on a MAGPIX System (Merck) using the xPONENT 4.2 software (Merck). The acquired fluorescence data were analyzed by the MILLIPLEX Analyst v5.1 software (Merck), which realized an advanced curve-fitting algorithm. Levels of the analytes in control and experimental samples were compared with an unpaired two-sample t-test using GraphPad Prism v.8.0.1 (GraphPad Software, Inc., San Diego, CA, USA). The p-values ≤ 0.05 were considered significant.

Q: For “LL-37: the only human cathelicidin, host defense antimicrobial peptide of 37 a.a. residues, produced by solid-phase peptide synthesis”, which MIP-1b level (control 0.3) is on record?
A: 3.42 pg/mL

Q: And the IL-18 level (control 0.98)?
A: 0.33 pg/mL

Q: What about the IL-9 level (control 1.09) of the same substance?
A: 1.7 pg/mL

Q: And the IL-6 level (control 1.75)?
A: 9.84 pg/mL

Q: And the MIP-1a level (control 2.06)?
A: 5.65 pg/mL

Q: And the EGF level (control 2.26)?
A: <1.60↓ pg/ml

Q: What about the IP-10 level (control 4.18) of the same substance?
A: 2.9 pg/mL

Q: And the IL-4 level (control 4.8)?
A: 6.56 pg/mL

Q: What about the MCP-3 level (control 7.84) of the same substance?
A: 8.72 pg/mL

Q: What about the sCD40L level (control 12.72) of the same substance?
A: 23.6 pg/mL

Q: And the TNFb level (control 12.91, p = 0.02)?
A: 18.9 pg/mL and 18.87 pg/mL

Q: What about the GROa level (control 18.09) of the same substance?
A: 27.89 pg/mL

Q: And the PDGF-AB/BB level (control 22.83)?
A: 29.35 pg/mL

Q: What about the IL-13 level (control 25.51) of the same substance?
A: 32.02 pg/mL

Q: And the FGF-2 level (control 25.68)?
A: 16.73 pg/mL

Q: And the IL-22 level (control 27.2, p = 0.013)?
A: 39 pg/mL and 39.52 pg/mL

Q: And the IL-8 level (control 28.45, p = 0.16)?
A: 86 pg/mL and 86.32 pg/mL

Q: And the IL-27 level (control 41.5)?
A: 35.81 pg/mL

Q: What about the MCP-1 level (control 55.94) of the same substance?
A: 100.47 pg/mL

Q: What about the PDGF-AA level (control 164.04) of the same substance?
A: 149.4 pg/mL

Q: What about the VEGFa level (control 960.31) of the same substance?
A: 2088 pg/mL

Q: And the IL-7 level (control <0.30)?
A: <0.30↓ pg/ml

Q: And the MDC level (control <0.31)?
A: <0.31↓ pg/ml

Q: And the IL-5 level (control <0.35)?
A: <0.35↓ pg/ml

Q: What about the IL-2 level (control <0.36) of the same substance?
A: <0.36↓ pg/ml

Q: And the FLT-3L level (control <0.51)?
A: <0.51↓ pg/ml

Q: What about the IL-3 level (control <0.55) of the same substance?
A: <0.55↓ pg/ml

Q: And the RANTES level (control <0.64)?
A: <0.64↓ pg/ml

Q: What about the TGF-a level (control <0.68) of the same substance?
A: <0.68↓ pg/ml

Q: What about the IL-17A level (control <0.70) of the same substance?
A: <0.70↓ pg/ml

Q: What about the IFNg level (control <0.73) of the same substance?
A: <0.73↓ pg/ml

Q: What about the IL-1b level (control <0.74) of the same substance?
A: <0.74↓ pg/ml

Q: What about the GM-CSF level (control <0.76) of the same substance?
A: <0.76↓ pg/ml

Q: What about the IL-1RA level (control <0.93) of the same substance?
A: <0.93↓ pg/ml

Q: And the IL-1a level (control <1.30)?
A: <1.30↓ pg/ml

Q: And the IL-10 level (control <1.35)?
A: <1.35↓ pg/ml

Q: And the IL-15 level (control <1.54)?
A: <1.54↓ pg/ml

Q: What about the “IL-12 (p70) level” value (control <1.71) of the same substance?
A: <1.71↓ pg/ml

Q: What about the G-CSF level (control <2.32) of the same substance?
A: <2.32↓ pg/ml

Q: What about the Eotaxin level (control <2.91) of the same substance?
A: <2.91↓ pg/ml

Q: And the “IL-12 (p40) level” value (control <3.33)?
A: <3.33↓ pg/ml

Q: What about the MIG level (control <3.38) of the same substance?
A: <3.38↓ pg/ml

Q: And the IFNa2 level (control <3.88)?
A: <3.88↓ pg/ml

Q: What about the TNFa level (control <3.88) of the same substance?
A: <3.88↓ pg/ml

Q: And the IL-17F level (control <12.19)?
A: <12.19↓ pg/ml

Q: And the Fractalkine level (control <18.09)?
A: <18.09↓ pg/ml

Q: What about the IL-17E/IL-25 level (control <19.43) of the same substance?
A: <19.43↓ pg/ml

Q: What about the M-GSF level (control <24.21) of the same substance?
A: <24.21↓ pg/ml

Source: PMC10526274, “Epithelial-Immune Cell Crosstalk Determines the Activation of Immune Cells In Vitro by the Human Cathelicidin LL-37 at Low Physiological Concentrations” (Biomolecules, 2023)
